Data published in article PMC10716780, “The multistep oxidation of cholesterol to pregnenolone by human cytochrome P450 11A1 is highly processive” (The Journal of Biological Chemistry, 2023).
Several values for one entry are separate records, joined by “and”; a condition that tells them apart may be missing. Identical values can stand only once.

Target: T1, human P450 11A1 (Homo sapiens, UniProt P05108)
T1 sequence (P05108 41-521 limits assumed): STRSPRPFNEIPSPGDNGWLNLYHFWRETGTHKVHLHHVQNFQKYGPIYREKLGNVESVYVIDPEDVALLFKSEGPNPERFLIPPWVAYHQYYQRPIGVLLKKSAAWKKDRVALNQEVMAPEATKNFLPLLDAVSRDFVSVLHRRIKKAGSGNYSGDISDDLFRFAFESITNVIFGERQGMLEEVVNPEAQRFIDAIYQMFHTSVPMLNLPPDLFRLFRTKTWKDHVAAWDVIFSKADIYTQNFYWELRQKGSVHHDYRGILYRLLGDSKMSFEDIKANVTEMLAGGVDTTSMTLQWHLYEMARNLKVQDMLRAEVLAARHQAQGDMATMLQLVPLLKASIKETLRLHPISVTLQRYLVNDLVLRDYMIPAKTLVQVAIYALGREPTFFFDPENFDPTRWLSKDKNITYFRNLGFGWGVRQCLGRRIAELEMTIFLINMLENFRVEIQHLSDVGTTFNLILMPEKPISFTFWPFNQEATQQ
T1 sequence (P00257 59-186 partner): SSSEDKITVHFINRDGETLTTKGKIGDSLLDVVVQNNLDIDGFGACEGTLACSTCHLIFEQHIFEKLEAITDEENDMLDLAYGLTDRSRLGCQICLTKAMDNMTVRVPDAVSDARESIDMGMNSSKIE
Experiment: Fluorescence titration of Alexa 488-Adx with P450 11A1 ± cholesterol
Format: binding
Set-up: M A S T R S P R P F N E I P S P G D N; Met-Ala (N-terminal start residues in place of the transit peptide and Ile40) (N); made in house; host or cells: E. coli (P450 11A1 in C41(DE3); Adx and AdR in E. coli)
Experimental: Because Adx has been reported to stimulate the binding of P450 11A1 to its substrates ([12], [44]), we examined whether the binding of detergent-free P450 11A1 to Adx is enhanced by cholesterol, utilizing our fluorescently-labeled Adx construct (Alexa 488-Adx) ([45]). A 1:1 M complex of P450 11A1 and cholesterol was gradually titrated into a solution containing Alexa 488-Adx (50 nM), and the quenching of Adx fluorescence was monitored over the course of the reaction.
Figure 7 Effect of cholesterol on P450 11A1 binding to Adx.A, titration of P450 11A1 (0–400 nM) into Alexa 488-Adx (50 nM) gradually quenched the fluorophore and yielded a decrease in fluorescence output (between 500 and 600 nm). Spectra were collected after each addition of P450. B, normalized fluorescence (F/F0) of titrations of P450 11A1 with (▪, red) and without (•, black) cholesterol (equimolar). A 1:1 M complex of P450 and cholesterol was used as titrant, where indicated. […]
A previously described Alexa Fluor 488-labeled Adx construct and experimental protocol were used ([45]) to perform the fluorescence titration of P450 11A1 with Adx. […] P450 11A1 was gradually titrated (0–0.4 μM) into the cuvette (to a maximum of 2% (v/v)), and spectra were recorded using an OLIS DM-45 spectrofluorometer (1.24 mm slit width) with fluorophore excitation at 493 nm and scanning emission spectra from 500 to 600 nm. […]

CC(C)CCC[C@@H](C)[C@H]1CC[C@H]2[C@@H]3CC=C4C[C@@H](O)CC[C@]4(C)[C@H]3CC[C@]12C [Cholesterol]
stimulation of binding of P450 11A1 to Adx (equimolar cholesterol): ~5 fold and ~4.5 fold
change in Gibbs free energy of Adx binding (from the 4.5-fold change in Kd): < 1 kcal/mol
